Measured values as given in paper PMC6979384, “Characterization of the plant homeodomain (PHD) reader family for their histone tail interactions” (Epigenetics & Chromatin, 2020).

Legend:
Experiment in all cases: Histone peptide microarray
Format in all cases: binding, human
Settings in all cases: sheet "Array Heatmap"; GST-tagged reader; histone peptide array, total n = 4
KDM5B (3) = system: KDM5B (3)
How it was run: (§1)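 Readout is array binding signal, reported as the mean and standard deviation over four replicates. Each purified GST-fused PHD domain was incubated at 0.5 μM with a library of 293 modified histone peptides.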

KDM4C (TTP) = system: KDM4C (TTP)
How it was run: as §1

ING5 = system: ING5
How it was run: as §1

RAG2 = system: RAG2
How it was run: as §1

KDM5A (3) = system: KDM5A (3)
How it was run: as §1

KDM7A = system: KDM7A
How it was run: as §1

PHRF1 (RP) = system: PHRF1 (RP)
How it was run: as §1

MORC3 (CW) = system: MORC3 (CW)
How it was run: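 Purified PHD finger domains fused to GST are screened against 293 synthetic histone peptides bearing one or several post-translational modifications. The protein is used at 0.5 μM, and the signal from four replicate arrays is averaged, with standard deviation given.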

BPTF (PB) = system: BPTF (PB)
How it was run: as §1

KDM5B (1) = system: KDM5B (1)
How it was run: as §1

DIDO1 = system: DIDO1
How it was run: as §1

CHD4 (PPCC) = system: CHD4 (PPCC)
How it was run: as §1

ING1 = system: ING1
How it was run: as §1

DPF2 (PPC2W2) = system: DPF2 (PPC2W2)
How it was run: as §1

PHF23 = system: PHF23
How it was run: as §1

CHD5 (PPCC) = system: CHD5 (PPCC)
How it was run: as §1

TAF3 = system: TAF3
How it was run: as §1

TRIM66 (PB) = system: TRIM66 (PB)
How it was run: as §1

AIRE (PP) = system: AIRE (PP)
How it was run: as §1

PHF8 = system: PHF8
How it was run: as §1

CHD5 (PCC) = system: CHD5 (PCC)
How it was run: as §1

SP140L = system: SP140L
How it was run: as §1

ING4 = system: ING4
How it was run: as §1

ING3 = system: ING3
How it was run: as §1

KDM5A (1) = system: KDM5A (1)
How it was run: as §1

BAZ2B = system: BAZ2B
How it was run: as §1

PHF2 = system: PHF2
How it was run: as §1

PHF13 = system: PHF13
How it was run: as §1

ING2 = system: ING2
How it was run: as §1

PHF21A = system: PHF21A
How it was run: as §1

MLL5 = system: MLL5
How it was run: as §1

## H3R17me2a + K18ac (1-25): H3 1-25
KDM5B (3)
  Array Heatmap signal, KDM5B (3): 0.4124
KDM4C (TTP)
  Array Heatmap signal, KDM4C (TTP): 0.324
ING5
  Array Heatmap signal, ING5: 0.251
RAG2
  Array Heatmap signal, RAG2: 0.2079
KDM5A (3)
  Array Heatmap signal, KDM5A (3): 0.5578
KDM7A
  Array Heatmap signal, KDM7A: 0.2298
PHRF1 (RP)
  Array Heatmap signal, PHRF1 (RP): 0.7492
MORC3 (CW)
  Array Heatmap signal, MORC3 (CW): 0.4929
BPTF (PB)
  Array Heatmap signal, BPTF (PB): 0.2769
KDM5B (1)
  Array Heatmap signal, KDM5B (1): 0.6531
DIDO1
  Array Heatmap signal, DIDO1: 0.5785
CHD4 (PPCC)
  Array Heatmap signal, CHD4 (PPCC): 0.4858
ING1
  Array Heatmap signal, ING1: 0.4981
DPF2 (PPC2W2)
  Array Heatmap signal, DPF2 (PPC2W2): 0.608
PHF23
  Array Heatmap signal, PHF23: 0.4823
CHD5 (PPCC)
  Array Heatmap signal, CHD5 (PPCC): 0.4057
TAF3
  Array Heatmap signal, TAF3: 0.2141
TRIM66 (PB)
  Array Heatmap signal, TRIM66 (PB): 0.6221
AIRE (PP)
  Array Heatmap signal, AIRE (PP): 0.3677
PHF8
  Array Heatmap signal, PHF8: 0.2767
CHD5 (PCC)
  Array Heatmap signal, CHD5 (PCC): 0.615
SP140L
  Array Heatmap signal, SP140L: 0.2916
ING4
  Array Heatmap signal, ING4: 0.3381
ING3
  Array Heatmap signal, ING3: 0.4176
KDM5A (1)
  Array Heatmap signal, KDM5A (1): 0.3724
BAZ2B
  Array Heatmap signal, BAZ2B: 0.3556
PHF2
  Array Heatmap signal, PHF2: 0.4874
PHF13
  Array Heatmap signal, PHF13: 0.4521
ING2
  Array Heatmap signal, ING2: 0.5776
PHF21A
  Array Heatmap signal, PHF21A: 0.3605
MLL5
  Array Heatmap signal, MLL5: 0.4712

## H3R17me2a: H3 1-20 [Peptide H3R17me2a]
KDM5B (3)
  Array Heatmap signal, KDM5B (3): 0.4098
KDM4C (TTP)
  Array Heatmap signal, KDM4C (TTP): 0.2915
ING5
  Array Heatmap signal, ING5: 0.2247
RAG2
  Array Heatmap signal, RAG2: 0.3136
KDM5A (3)
  Array Heatmap signal, KDM5A (3): 0.5532
KDM7A
  Array Heatmap signal, KDM7A: 0.2428
PHRF1 (RP)
  Array Heatmap signal, PHRF1 (RP): 0.5177
MORC3 (CW)
  Array Heatmap signal, MORC3 (CW): 0.4952
BPTF (PB)
  Array Heatmap signal, BPTF (PB): 0.2765
KDM5B (1)
  Array Heatmap signal, KDM5B (1): 0.4837
DIDO1
  Array Heatmap signal, DIDO1: 0.6933
CHD4 (PPCC)
  Array Heatmap signal, CHD4 (PPCC): 0.4461
ING1
  Array Heatmap signal, ING1: 0.5124
DPF2 (PPC2W2)
  Array Heatmap signal, DPF2 (PPC2W2): 0.5665
PHF23
  Array Heatmap signal, PHF23: 0.499
CHD5 (PPCC)
  Array Heatmap signal, CHD5 (PPCC): 0.3709
TAF3
  Array Heatmap signal, TAF3: 0.2956
TRIM66 (PB)
  Array Heatmap signal, TRIM66 (PB): 0.5152
AIRE (PP)
  Array Heatmap signal, AIRE (PP): 0.3243
PHF8
  Array Heatmap signal, PHF8: 0.337
CHD5 (PCC)
  Array Heatmap signal, CHD5 (PCC): 0.5481
SP140L
  Array Heatmap signal, SP140L: 0.2774
ING4
  Array Heatmap signal, ING4: 0.3252
ING3
  Array Heatmap signal, ING3: 0.3691
KDM5A (1)
  Array Heatmap signal, KDM5A (1): 0.3023
BAZ2B
  Array Heatmap signal, BAZ2B: 0.3052
PHF2
  Array Heatmap signal, PHF2: 0.6186
PHF13
  Array Heatmap signal, PHF13: 0.4423
ING2
  Array Heatmap signal, ING2: 0.6139
PHF21A
  Array Heatmap signal, PHF21A: 0.2924
MLL5
  Array Heatmap signal, MLL5: 0.5506

## H3R17me2s: H3 1-20 [Peptide H3R17me2s]
KDM5B (3)
  Array Heatmap signal, KDM5B (3): 0.5222
KDM4C (TTP)
  Array Heatmap signal, KDM4C (TTP): 0.4268
ING5
  Array Heatmap signal, ING5: 0.3275
RAG2
  Array Heatmap signal, RAG2: 0.2456
KDM5A (3)
  Array Heatmap signal, KDM5A (3): 0.5756
KDM7A
  Array Heatmap signal, KDM7A: 0.306
PHRF1 (RP)
  Array Heatmap signal, PHRF1 (RP): 0.8026
MORC3 (CW)
  Array Heatmap signal, MORC3 (CW): 0.5429
BPTF (PB)
  Array Heatmap signal, BPTF (PB): 0.3293
KDM5B (1)
  Array Heatmap signal, KDM5B (1): 0.601
DIDO1
  Array Heatmap signal, DIDO1: 0.6492
CHD4 (PPCC)
  Array Heatmap signal, CHD4 (PPCC): 0.5449
ING1
  Array Heatmap signal, ING1: 0.5076
DPF2 (PPC2W2)
  Array Heatmap signal, DPF2 (PPC2W2): 0.6998
PHF23
  Array Heatmap signal, PHF23: 0.5417
CHD5 (PPCC)
  Array Heatmap signal, CHD5 (PPCC): 0.5108
TAF3
  Array Heatmap signal, TAF3: 0.274
TRIM66 (PB)
  Array Heatmap signal, TRIM66 (PB): 0.6637
AIRE (PP)
  Array Heatmap signal, AIRE (PP): 0.4113
PHF8
  Array Heatmap signal, PHF8: 0.3293
CHD5 (PCC)
  Array Heatmap signal, CHD5 (PCC): 0.7264
SP140L
  Array Heatmap signal, SP140L: 0.3428
ING4
  Array Heatmap signal, ING4: 0.4307
ING3
  Array Heatmap signal, ING3: 0.447
KDM5A (1)
  Array Heatmap signal, KDM5A (1): 0.4442
BAZ2B
  Array Heatmap signal, BAZ2B: 0.4477
PHF2
  Array Heatmap signal, PHF2: 0.5815
PHF13
  Array Heatmap signal, PHF13: 0.5969
ING2
  Array Heatmap signal, ING2: 0.6161
PHF21A
  Array Heatmap signal, PHF21A: 0.4345
MLL5
  Array Heatmap signal, MLL5: 0.5344
